Experimental data taken from paper PMC11412156 (Journal of medicinal chemistry, 2024).

Tests used:
Assay type in all cases: biochemical
[1] = target: T1, HDAC6 (Homo sapiens, UniProt Q9UBN7); assay: HDAC enzyme-based fluorogenic assay, HDAC6; conditions: for HDAC6 inhibitor rate: final concentration of 2 μM, preliminary screen; for IC50: read-out: HDAC6 IC50, mean of at least three experiments
T1 sequence (Q9UBN7 1-1215): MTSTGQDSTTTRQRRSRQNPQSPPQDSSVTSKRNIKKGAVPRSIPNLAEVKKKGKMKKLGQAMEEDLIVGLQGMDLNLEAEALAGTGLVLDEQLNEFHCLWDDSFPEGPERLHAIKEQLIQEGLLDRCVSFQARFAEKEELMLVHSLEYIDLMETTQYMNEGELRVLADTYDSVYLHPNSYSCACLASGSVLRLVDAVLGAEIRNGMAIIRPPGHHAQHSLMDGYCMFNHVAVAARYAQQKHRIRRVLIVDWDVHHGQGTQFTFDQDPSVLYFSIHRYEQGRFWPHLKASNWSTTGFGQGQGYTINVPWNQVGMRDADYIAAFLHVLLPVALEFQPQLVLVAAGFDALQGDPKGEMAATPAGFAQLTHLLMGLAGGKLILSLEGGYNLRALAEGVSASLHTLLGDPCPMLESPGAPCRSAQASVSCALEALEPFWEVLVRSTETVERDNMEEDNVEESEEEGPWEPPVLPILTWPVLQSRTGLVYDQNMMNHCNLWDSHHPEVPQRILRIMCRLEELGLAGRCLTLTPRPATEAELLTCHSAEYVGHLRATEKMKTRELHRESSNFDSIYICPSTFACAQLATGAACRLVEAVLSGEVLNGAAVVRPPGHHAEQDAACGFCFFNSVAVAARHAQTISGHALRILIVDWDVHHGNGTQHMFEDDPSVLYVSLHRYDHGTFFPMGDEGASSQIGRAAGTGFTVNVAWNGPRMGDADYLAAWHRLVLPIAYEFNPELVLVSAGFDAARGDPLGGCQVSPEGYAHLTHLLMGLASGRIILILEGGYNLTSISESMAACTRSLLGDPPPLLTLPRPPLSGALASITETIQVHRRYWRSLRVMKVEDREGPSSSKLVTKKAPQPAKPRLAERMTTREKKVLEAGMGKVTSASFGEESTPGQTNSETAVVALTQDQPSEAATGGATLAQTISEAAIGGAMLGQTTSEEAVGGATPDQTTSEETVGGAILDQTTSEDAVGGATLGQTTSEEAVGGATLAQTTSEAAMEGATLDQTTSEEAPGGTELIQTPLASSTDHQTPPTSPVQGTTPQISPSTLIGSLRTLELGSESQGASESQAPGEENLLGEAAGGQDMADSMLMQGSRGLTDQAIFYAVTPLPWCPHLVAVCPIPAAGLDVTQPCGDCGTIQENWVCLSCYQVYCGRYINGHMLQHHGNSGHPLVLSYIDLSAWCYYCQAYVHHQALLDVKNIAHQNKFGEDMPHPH

[2] = target: HDAC2 (Homo sapiens, UniProt Q92769); assay: HDAC enzyme-based fluorogenic assay, HDAC2; conditions: read-out: HDAC2 IC50; mean of at least three experiments
[3] = target: HDAC3 (Homo sapiens, UniProt O15379); assay: HDAC enzyme-based fluorogenic assay, HDAC3; conditions: read-out: HDAC3 IC50; mean of at least three experiments
[4] = target: HDAC1 (Homo sapiens, UniProt Q13547); assay: HDAC enzyme-based fluorogenic assay, HDAC1; conditions: read-out: HDAC1 IC50; mean of at least three experiments
[5] = target: T2, HDAC8 (Homo sapiens, UniProt Q9BY41); assay: HDAC enzyme-based fluorogenic assay, HDAC8; conditions: read-out: HDAC8 IC50; mean of at least three experiments
T2 sequence (Q9BY41 1-377): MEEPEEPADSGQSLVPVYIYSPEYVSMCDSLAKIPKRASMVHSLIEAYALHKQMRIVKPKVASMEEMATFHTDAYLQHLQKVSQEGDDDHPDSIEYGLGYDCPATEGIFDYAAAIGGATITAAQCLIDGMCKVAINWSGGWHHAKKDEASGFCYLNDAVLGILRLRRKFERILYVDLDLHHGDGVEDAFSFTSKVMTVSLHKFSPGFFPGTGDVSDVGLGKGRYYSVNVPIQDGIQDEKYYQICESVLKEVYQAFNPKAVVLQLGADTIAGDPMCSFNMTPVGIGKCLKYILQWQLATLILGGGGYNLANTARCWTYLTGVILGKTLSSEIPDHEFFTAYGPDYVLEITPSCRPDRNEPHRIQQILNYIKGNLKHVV

[6] = target: T3, HDAC11 (Homo sapiens, UniProt Q96DB2); assay: HDAC enzyme-based fluorogenic assay, HDAC11; conditions: read-out: HDAC11 IC50; mean of at least three experiments
T3 sequence (Q96DB2 1-347): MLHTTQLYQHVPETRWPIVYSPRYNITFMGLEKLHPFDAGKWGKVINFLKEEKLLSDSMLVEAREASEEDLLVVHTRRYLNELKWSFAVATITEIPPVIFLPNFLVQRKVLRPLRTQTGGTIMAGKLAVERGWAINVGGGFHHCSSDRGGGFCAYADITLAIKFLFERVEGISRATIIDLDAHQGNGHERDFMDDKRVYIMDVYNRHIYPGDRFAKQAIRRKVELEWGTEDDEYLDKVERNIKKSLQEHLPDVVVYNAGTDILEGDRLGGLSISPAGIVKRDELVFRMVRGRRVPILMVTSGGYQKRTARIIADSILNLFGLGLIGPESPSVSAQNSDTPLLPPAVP

Sequence of HDAC3 (O15379 whole entry): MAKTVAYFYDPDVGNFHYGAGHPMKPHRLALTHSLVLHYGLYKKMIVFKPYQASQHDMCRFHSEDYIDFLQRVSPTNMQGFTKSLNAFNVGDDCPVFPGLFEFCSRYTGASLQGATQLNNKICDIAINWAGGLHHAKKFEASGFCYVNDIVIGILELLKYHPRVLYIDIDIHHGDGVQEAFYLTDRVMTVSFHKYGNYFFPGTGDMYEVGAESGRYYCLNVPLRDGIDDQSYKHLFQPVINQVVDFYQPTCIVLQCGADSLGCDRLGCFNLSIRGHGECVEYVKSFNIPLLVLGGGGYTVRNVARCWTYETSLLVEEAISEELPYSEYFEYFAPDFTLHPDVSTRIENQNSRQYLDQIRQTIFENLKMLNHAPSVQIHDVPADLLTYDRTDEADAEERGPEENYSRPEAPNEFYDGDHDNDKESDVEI
Sequence of HDAC3 (Q9Y618 395-489 partner limits assumed): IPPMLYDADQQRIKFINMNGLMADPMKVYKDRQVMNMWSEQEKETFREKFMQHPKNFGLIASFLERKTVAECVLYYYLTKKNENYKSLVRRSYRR
Sequence of HDAC1 (Q13547 whole entry): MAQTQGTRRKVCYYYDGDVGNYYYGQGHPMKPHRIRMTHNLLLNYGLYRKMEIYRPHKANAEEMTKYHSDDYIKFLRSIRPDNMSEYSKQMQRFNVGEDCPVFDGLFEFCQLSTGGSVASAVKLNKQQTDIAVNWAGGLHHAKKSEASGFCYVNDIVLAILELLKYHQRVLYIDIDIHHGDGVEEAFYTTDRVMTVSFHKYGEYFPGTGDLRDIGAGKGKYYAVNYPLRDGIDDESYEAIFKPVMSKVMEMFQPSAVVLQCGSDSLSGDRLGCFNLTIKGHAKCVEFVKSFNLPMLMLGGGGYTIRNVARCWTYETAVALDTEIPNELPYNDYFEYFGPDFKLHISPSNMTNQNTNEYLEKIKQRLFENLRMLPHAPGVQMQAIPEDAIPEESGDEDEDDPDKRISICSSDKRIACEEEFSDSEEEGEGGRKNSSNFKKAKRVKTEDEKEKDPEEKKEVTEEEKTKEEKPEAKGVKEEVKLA
Sequence of HDAC2 (Q92769 whole entry): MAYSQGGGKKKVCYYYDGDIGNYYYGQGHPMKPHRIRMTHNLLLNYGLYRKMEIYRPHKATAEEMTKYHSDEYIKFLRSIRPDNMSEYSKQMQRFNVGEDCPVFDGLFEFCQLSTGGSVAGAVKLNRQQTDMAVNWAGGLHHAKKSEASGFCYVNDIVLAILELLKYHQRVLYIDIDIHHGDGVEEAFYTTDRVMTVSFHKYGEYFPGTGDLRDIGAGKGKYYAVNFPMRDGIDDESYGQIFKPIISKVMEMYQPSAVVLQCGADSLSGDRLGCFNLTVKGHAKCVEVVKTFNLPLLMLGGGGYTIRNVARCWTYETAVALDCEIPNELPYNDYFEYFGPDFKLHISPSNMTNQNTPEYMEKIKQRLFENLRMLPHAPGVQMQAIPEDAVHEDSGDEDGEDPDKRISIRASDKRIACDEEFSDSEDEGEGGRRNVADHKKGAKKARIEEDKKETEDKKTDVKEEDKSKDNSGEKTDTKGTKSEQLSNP

SMILES: C[C@]12CC3CC(Nc4c(Nc5ccc(C(=O)N6CCC[C@H](C(=O)NCCCCCC(=O)NO)C6)cc5)c(=O)c4=O)(C1)C[C@@](C)(C3)C2 [Compound 40c, (S)-1-(4-((2-(((1r,3R,5S,7r)-3,5-Dimethyladamantan-1-yl)amino)-3,4-dioxocyclobut-1-en-1-yl)amino)benzoyl)-N-(6-(hydroxyamino)-6-oxohexyl)piperidine-3-carbo-xamide]
- HDAC6 inhibitor rate [1]: 98.49%
- IC50 [1]: 282 nM
- IC50 [2]: 3100 nM
- IC50 [3]: 4150 nM
- IC50 [4]: 1030 nM
- IC50 [5]: 520 nM
- IC50 [6]: 84 nM

SMILES: CC12CC3CC(C)(C1)CC(Nc1c(Nc4ccc(C(=O)N5CCC[C@H](C(=O)NCCCCCCC(=O)NO)C5)cc4)c(=O)c1=O)(C3)C2 [Compound 40d, (S)-1-(4-((2-(((1r,3R,5S,7r)-3,5-Dimethyladamantan-1-yl)amino)-3,4-dioxocyclobut-1-en-1-yl)amino)benzoyl)-N-(7-(hydroxyamino)-7-oxoheptyl)piperidine-3-carboxamide]
- HDAC6 inhibitor rate [1]: 99.66%
- IC50 [1]: 162 nM
- IC50 [2]: 2530 nM
- IC50 [3]: 1450 nM
- IC50 [4]: 415 nM
- IC50 [5]: 158 nM
- IC50 [6]: 241 nM
